Measured values reported in PubChem BioAssay AID493156 (Johns Hopkins Ion Channel Center, 2011).

Molecular target: Voltage-gated inwardly rectifying potassium channel KCNH2 (Homo sapiens) (UniProt Q12809)
Test: hERG potassium channel inhibitors, primary screen, automated electrophysiology, CHO cells, Ionworks Quattro (AID 493156)
Conditions: automated patch clamp current, stronger effect = lower value

Sequence of Voltage-gated inwardly rectifying potassium channel KCNH2 (Homo sapiens) (Q12809 whole entry, looked up): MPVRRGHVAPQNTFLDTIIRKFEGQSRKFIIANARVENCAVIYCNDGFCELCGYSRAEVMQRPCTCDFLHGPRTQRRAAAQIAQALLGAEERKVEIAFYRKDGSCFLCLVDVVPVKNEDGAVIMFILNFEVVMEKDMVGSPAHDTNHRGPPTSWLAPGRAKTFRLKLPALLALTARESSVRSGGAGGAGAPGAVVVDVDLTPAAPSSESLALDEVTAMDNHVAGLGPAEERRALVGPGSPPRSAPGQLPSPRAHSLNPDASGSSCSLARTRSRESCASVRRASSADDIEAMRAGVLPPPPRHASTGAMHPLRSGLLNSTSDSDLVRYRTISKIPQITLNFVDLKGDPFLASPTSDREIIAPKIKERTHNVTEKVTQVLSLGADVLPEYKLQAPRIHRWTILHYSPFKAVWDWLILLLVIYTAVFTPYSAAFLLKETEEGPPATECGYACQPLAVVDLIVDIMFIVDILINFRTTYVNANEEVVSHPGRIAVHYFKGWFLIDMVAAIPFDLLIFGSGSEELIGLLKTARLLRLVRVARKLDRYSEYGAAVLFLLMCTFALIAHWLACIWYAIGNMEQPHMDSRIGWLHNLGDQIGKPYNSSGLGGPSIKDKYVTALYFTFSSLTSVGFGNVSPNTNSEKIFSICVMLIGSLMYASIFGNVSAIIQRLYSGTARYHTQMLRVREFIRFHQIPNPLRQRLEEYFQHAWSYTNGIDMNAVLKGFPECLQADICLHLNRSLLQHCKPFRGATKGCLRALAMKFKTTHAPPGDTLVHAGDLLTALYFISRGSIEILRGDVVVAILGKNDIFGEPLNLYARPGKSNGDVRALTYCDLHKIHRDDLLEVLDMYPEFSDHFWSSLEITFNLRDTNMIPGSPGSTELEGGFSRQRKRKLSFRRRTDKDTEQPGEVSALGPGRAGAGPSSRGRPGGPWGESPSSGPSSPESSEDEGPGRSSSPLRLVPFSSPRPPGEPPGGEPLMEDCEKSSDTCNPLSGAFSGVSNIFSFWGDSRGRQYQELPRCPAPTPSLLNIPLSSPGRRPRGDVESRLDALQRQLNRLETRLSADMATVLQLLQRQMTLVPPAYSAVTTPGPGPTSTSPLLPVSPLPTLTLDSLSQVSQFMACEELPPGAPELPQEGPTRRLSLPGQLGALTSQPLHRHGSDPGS

Work on Cc1occc1C(=O)N1CCN(c2ccc([N+](=O)[O-])cc2)CC1 yielded a current change, negative = inhibition (at 10 µM) of -100% and a current change, negative = inhibition (current change, at 1 µM) of -55.3%.

Work on Cc1ccc(-n2ncc3c2CCCC3NC(=O)c2ccoc2)cc1C (stereo not drawn) yielded a current change, negative = inhibition (at 10 µM) of -100% and a current change, negative = inhibition (current change, at 1 µM) of -88.6%.

Cc1ccccc1C(=O)Nc1ccnn1C1CCN(Cc2cccnc2)CC1 showed a current change, negative = inhibition (at 10 µM) of -100% and a current change, negative = inhibition (current change, at 1 µM) of -58.5%.

Work on CCn1cc(CN2CCC(C(=O)Nc3cccc(-c4cccc(Cl)c4)c3)CC2)c(C)n1 yielded a current change, negative = inhibition (at 10 µM) of -100% and a current change, negative = inhibition (current change, at 1 µM) of -48.6%.

CSc1cccc(CN2CCCC(CNC(=O)c3ccco3)C2)c1 (stereo not drawn) was tested, and the current change, negative = inhibition (at 10 µM) was -100% and the current change, negative = inhibition (current change, at 1 µM) was -57.7%.

With Cc1cc(C)n(CCCN2CCC(C(=O)Nc3cccc(-c4cccc(F)c4)c3)CC2)n1 the current change, negative = inhibition (at 10 µM) was -100% and the current change, negative = inhibition (current change, at 1 µM) was -69.7%.

CCc1ccc(CN2CCC(Oc3ccc(C(=O)N4CCCC4)cc3)CC2)cc1 showed a current change, negative = inhibition (at 10 µM) of -100% and a current change, negative = inhibition (current change, at 1 µM) of -87.6%.

For O=C(c1cccc(-c2ccco2)c1)N1CCCC(N2CCN(c3ccc(F)cc3)CC2)C1 (stereo not drawn), the current change, negative = inhibition (at 10 µM) was -100% and the current change, negative = inhibition (current change, at 1 µM) was -45.2%.

Compound Cc1ccccc1CN1CCN(C(=O)c2cc(-c3ccncc3)nc3ccccc23)CC1 has a current change, negative = inhibition (at 10 µM) of -100% and a current change, negative = inhibition (current change, at 1 µM) of -25.6%.
